Measured values reported in patent US12077503B2, “Substituted cyclic amides and their use as herbicides” (FMC CORPORATION, priority 2015, dated 2024).

Legend:
Type in all cases: in vivo
[1] = system: barnyardgrass (Echinochloa crus-galli); assay: Test G Pre-Emergence Protocol; details: Echinochloa crus-galli, pre-emergence, 312 h, evaluated after 13 days; for pest or weed control at 15.625 g/ha: 15.625 g ai/ha; for pest or weed control at 15.625 g/ha / pest or weed control at 250 g/ha: read-out: Barnyardgrass damage rating (100=total damage to plant; 0=no damage to plant); for pest or weed control at 62.5 g/ha: 62.5 g ai/ha, 100=total damage to plant, 0=no damage to plant, read-out: Barnyardgrass damage rating; for pest or weed control at 250 g/ha: 250 g ai/ha
In short: (§1)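 Glasshouse pre-emergence test: soil-sown seeds, sprayed after 1 d at 15.625, 62.5 or 250 g/ha. Conditions 24/16° C day/night, 14 h light, 65% humidity, watering twice daily. Rating 13 d post-spray (100 = total damage).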

[2] = system: velvetleaf (Abutilon theophrasti); assay: Test G Pre-Emergence Protocol; details: Abutilon theophrasti, pre-emergence, 312 h, evaluated after 13 days; for pest or weed control at 15.625 g/ha: 15.625 g ai/ha; for pest or weed control at 15.625 g/ha / pest or weed control at 250 g/ha: read-out: Velvetleaf damage rating (100=total damage to plant; 0=no damage to plant); for pest or weed control at 62.5 g/ha: 62.5 g ai/ha, 100=total damage to plant, 0=no damage to plant, read-out: Velvetleaf damage rating; for pest or weed control at 250 g/ha: 250 g ai/ha
In short: as §1

[3] = system: redroot pigweed (Amaranthus retroflexus); assay: Test G Pre-Emergence Protocol; details: Amaranthus retroflexus, pre-emergence, 312 h, evaluated after 13 days; for pest or weed control at 15.625 g/ha: 15.625 g ai/ha; for pest or weed control at 15.625 g/ha / pest or weed control at 250 g/ha: read-out: Pigweed, Redroot damage rating (100=total damage to plant; 0=no damage to plant); for pest or weed control at 62.5 g/ha: 62.5 g ai/ha, 100=total damage to plant, 0=no damage to plant, read-out: Pigweed, Redroot damage rating; for pest or weed control at 250 g/ha: 250 g ai/ha
In short: as §1

corn (Zea mays) [4] = assay: Test G Pre-Emergence Protocol; details: Zea mays, pre-emergence, 312 h, evaluated after 13 days; for plant injury at 15.625 g/ha: 15.625 g ai/ha; for plant injury at 15.625 g/ha / plant injury at 250 g/ha: read-out: Corn damage rating (100=total damage to plant; 0=no damage to plant); for plant injury at 62.5 g/ha: 62.5 g ai/ha, 100=total damage to plant, 0=no damage to plant, read-out: Corn damage rating; for plant injury at 250 g/ha: 250 g ai/ha
In short: as §1

[5] = system: giant foxtail (Setaria faberi); assay: Test G Pre-Emergence Protocol; details: Setaria faberi, pre-emergence, 312 h, evaluated after 13 days; for pest or weed control at 15.625 g/ha: 15.625 g ai/ha; for pest or weed control at 15.625 g/ha / pest or weed control at 250 g/ha: read-out: Foxtail, Giant damage rating (100=total damage to plant; 0=no damage to plant); for pest or weed control at 62.5 g/ha: 62.5 g ai/ha, 100=total damage to plant, 0=no damage to plant, read-out: Foxtail, Giant damage rating; for pest or weed control at 250 g/ha: 250 g ai/ha
In short: as §1

[6] = system: ivy-leaved morning glory (Ipomoea hederacea); assay: Test G Pre-Emergence Protocol; details: Ipomoea, pre-emergence, 312 h, evaluated after 13 days; for pest or weed control at 15.625 g/ha: 15.625 g ai/ha; for pest or weed control at 15.625 g/ha / pest or weed control at 250 g/ha: read-out: Morningglory, Ivy-leaved damage rating (100=total damage to plant; 0=no damage to plant); for pest or weed control at 62.5 g/ha: 62.5 g ai/ha, 100=total damage to plant, 0=no damage to plant, read-out: Morningglory, Ivy-leaved damage rating; for pest or weed control at 250 g/ha: 250 g ai/ha
In short: as §1

[7] = system: barnyardgrass (Echinochloa crus-galli); assay: Test G Post-Emergence Protocol; details: Echinochloa crus-galli, post-emergence, 312 h, read-out: Barnyardgrass damage rating; for pest or weed control at 15.625 g/ha: 15.625 g ai/ha, evaluated after 13 days (100=total damage to plant; 0=no damage to plant); for pest or weed control at 62.5 g/ha: 62.5 g ai/ha; for pest or weed control at 62.5 g/ha / pest or weed control at 250 g/ha: evaluated after 13 days, 100=total damage to plant, 0=no damage to plant; for pest or weed control at 250 g/ha: 250 g ai/ha
In short: (§2)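 Seedlings grown 8 days in soil in a glasshouse (24/16 °C day/night, 14 h light, 65% humidity) were sprayed post-emergence with compound in acetone/water 50:50 plus 0.5% Tween 20 at 15.625, 62.5 or 250 g/ha. Damage was scored after 13 days on a 0–100 scale (100 = total damage).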

[8] = system: velvetleaf (Abutilon theophrasti); assay: Test G Post-Emergence Protocol; details: Abutilon theophrasti, post-emergence, 312 h, read-out: Velvetleaf damage rating; for pest or weed control at 15.625 g/ha: 15.625 g ai/ha, evaluated after 13 days (100=total damage to plant; 0=no damage to plant); for pest or weed control at 62.5 g/ha: 62.5 g ai/ha; for pest or weed control at 62.5 g/ha / pest or weed control at 250 g/ha: evaluated after 13 days, 100=total damage to plant, 0=no damage to plant; for pest or weed control at 250 g/ha: 250 g ai/ha
In short: as §2

[9] = system: redroot pigweed (Amaranthus retroflexus); assay: Test G Post-Emergence Protocol; details: Amaranthus retroflexus, post-emergence, 312 h, read-out: Pigweed, Redroot damage rating; for pest or weed control at 15.625 g/ha: 15.625 g ai/ha, evaluated after 13 days (100=total damage to plant; 0=no damage to plant); for pest or weed control at 62.5 g/ha: 62.5 g ai/ha; for pest or weed control at 62.5 g/ha / pest or weed control at 250 g/ha: evaluated after 13 days, 100=total damage to plant, 0=no damage to plant; for pest or weed control at 250 g/ha: 250 g ai/ha
In short: as §2

corn (Zea mays) [10] = assay: Test G Post-Emergence Protocol; details: Zea mays, post-emergence, 312 h, read-out: Corn damage rating; for plant injury at 15.625 g/ha: 15.625 g ai/ha, evaluated after 13 days (100=total damage to plant; 0=no damage to plant); for plant injury at 62.5 g/ha: 62.5 g ai/ha; for plant injury at 62.5 g/ha / plant injury at 250 g/ha: evaluated after 13 days, 100=total damage to plant, 0=no damage to plant; for plant injury at 250 g/ha: 250 g ai/ha
In short: as §2

[11] = system: giant foxtail (Setaria faberi); assay: Test G Post-Emergence Protocol; details: Setaria faberi, post-emergence, 312 h, read-out: Foxtail, Giant damage rating; for pest or weed control at 15.625 g/ha: 15.625 g ai/ha, evaluated after 13 days (100=total damage to plant; 0=no damage to plant); for pest or weed control at 62.5 g/ha: 62.5 g ai/ha; for pest or weed control at 62.5 g/ha / pest or weed control at 250 g/ha: evaluated after 13 days, 100=total damage to plant, 0=no damage to plant; for pest or weed control at 250 g/ha: 250 g ai/ha
In short: as §2

[12] = system: ivy-leaved morning glory (Ipomoea hederacea); assay: Test G Post-Emergence Protocol; details: Ipomoea, post-emergence, 312 h, read-out: Morningglory, Ivy-leaved damage rating; for pest or weed control at 15.625 g/ha: 15.625 g ai/ha, evaluated after 13 days (100=total damage to plant; 0=no damage to plant); for pest or weed control at 62.5 g/ha: 62.5 g ai/ha; for pest or weed control at 62.5 g/ha / pest or weed control at 250 g/ha: evaluated after 13 days, 100=total damage to plant, 0=no damage to plant; for pest or weed control at 250 g/ha: 250 g ai/ha
In short: as §2

Compound	pest or weed control at 15.625 g/ha [1] [%]	pest or weed control at 62.5 g/ha [1] [%]	pest or weed control at 250 g/ha [1] [%]	pest or weed control at 15.625 g/ha [2] [%]	pest or weed control at 62.5 g/ha [2] [%]	pest or weed control at 250 g/ha [2] [%]	pest or weed control at 15.625 g/ha [3] [%]	pest or weed control at 62.5 g/ha [3] [%]	pest or weed control at 250 g/ha [3] [%]	plant injury at 15.625 g/ha (corn (Zea mays) [4]) [%]	plant injury at 62.5 g/ha (corn (Zea mays) [4]) [%]	plant injury at 250 g/ha (corn (Zea mays) [4]) [%]	pest or weed control at 15.625 g/ha [5] [%]	pest or weed control at 62.5 g/ha [5] [%]	pest or weed control at 250 g/ha [5] [%]	pest or weed control at 15.625 g/ha [6] [%]	pest or weed control at 62.5 g/ha [6] [%]	pest or weed control at 250 g/ha [6] [%]	pest or weed control at 15.625 g/ha [7] [%]	pest or weed control at 62.5 g/ha [7] [%]	also measured
CCc1cc([C@@H]2CN(C)C(=O)[C@H]2C(=O)Nc2cccc(F)c2C)ccc1Cl (racemic) [Compound 1804]	0	80	90	0	10	30	0	20	30	0	0	60	50	90	90	0	0	10	0	50	pest or weed control at 250 g/ha [7]: 60%; pest or weed control at 15.625 g/ha [8]: 0%; pest or weed control at 62.5 g/ha [8]: 10%; pest or weed control at 250 g/ha [8]: 10%; pest or weed control at 15.625 g/ha [9]: 0%; pest or weed control at 62.5 g/ha [9]: 0%; pest or weed control at 250 g/ha [9]: 10%; plant injury at 15.625 g/ha (corn (Zea mays) [10]): 0%; plant injury at 62.5 g/ha (corn (Zea mays) [10]): 0%; plant injury at 250 g/ha (corn (Zea mays) [10]): 70%; pest or weed control at 15.625 g/ha [11]: 0%; pest or weed control at 62.5 g/ha [11]: 70%; pest or weed control at 250 g/ha [11]: 80%; pest or weed control at 15.625 g/ha [12]: 0%; pest or weed control at 62.5 g/ha [12]: 50%; pest or weed control at 250 g/ha [12]: 60%
CN1C[C@H](c2cccc(C(F)(F)F)c2)[C@@H](C(=O)Nc2cccc(O)c2F)C1=O (racemic) [Compound 1806]	0	10	20	0	0	0	0	0	10	0	0	0	20	20	30	0	0	0	0	20	pest or weed control at 250 g/ha [7]: 50%; pest or weed control at 15.625 g/ha [8]: 0%; pest or weed control at 62.5 g/ha [8]: 0%; pest or weed control at 250 g/ha [8]: 0%; pest or weed control at 15.625 g/ha [9]: 0%; pest or weed control at 62.5 g/ha [9]: 0%; pest or weed control at 250 g/ha [9]: 0%; plant injury at 15.625 g/ha (corn (Zea mays) [10]): 0%; plant injury at 62.5 g/ha (corn (Zea mays) [10]): 0%; plant injury at 250 g/ha (corn (Zea mays) [10]): 40%; pest or weed control at 15.625 g/ha [11]: 0%; pest or weed control at 62.5 g/ha [11]: 60%; pest or weed control at 250 g/ha [11]: 60%; pest or weed control at 15.625 g/ha [12]: 0%; pest or weed control at 62.5 g/ha [12]: 0%; pest or weed control at 250 g/ha [12]: 0%
CN1C[C@H](c2ccc(C(F)(F)F)cc2)[C@@H](C(=O)Nc2ccc[n+]([O-])c2C(F)(F)F)C1=O (racemic) [Compound 1813]	0	0	10	0	0	30	0	0	20	0	0	0	0	10	90	0	0	20	0	0	pest or weed control at 250 g/ha [7]: 0%; pest or weed control at 15.625 g/ha [8]: 0%; pest or weed control at 62.5 g/ha [8]: 0%; pest or weed control at 250 g/ha [8]: 10%; pest or weed control at 15.625 g/ha [9]: 0%; pest or weed control at 62.5 g/ha [9]: 0%; pest or weed control at 250 g/ha [9]: 20%; plant injury at 15.625 g/ha (corn (Zea mays) [10]): 0%; plant injury at 62.5 g/ha (corn (Zea mays) [10]): 0%; plant injury at 250 g/ha (corn (Zea mays) [10]): 0%; pest or weed control at 15.625 g/ha [11]: 0%; pest or weed control at 62.5 g/ha [11]: 0%; pest or weed control at 250 g/ha [11]: 20%; pest or weed control at 15.625 g/ha [12]: 0%; pest or weed control at 62.5 g/ha [12]: 10%; pest or weed control at 250 g/ha [12]: 40%
